pIC50: −log10 of the molar value.
Tested on: platelet aggregation induced by ADP in platelet rich plasma (PRP)
Experiment: Effect on platelet aggregation induced by adenosine diphosphate (ADP)
Format: cell-based
Details: human PRP 3×10^8 platelets/ml; test compound in water, 2 minutes at 37° C.; ADP final 2.5 μM; aggregometer; read-out: IC50 (inhibition of ADP-induced platelet aggregation)
Description: Test: Effect on Platelet Aggregation Induced by Adenosine Diphosphate (ADP)
Platelet rich plasma (PRP) which contains 3×10^8 platelets/ml was prepared from human blood. To the 225 μl of PRP, 25 μl of the solution of the test compound in water was added, and then stirred for 2 minutes at 37° C. To the solution 5 μl of ADP (final 2.5 μM) was added as an aggregation inducer. Aggregation was measured by using an aggregometor (NBS HEMA-TRACER 801). Activity of […] (test compound) was expressed as IC50 value, i.e., dose required for […] of platelet aggregation.

Work on `COC(=O)C(=O)N[C@@H](CNC(=O)[C@@H]1CCCN(C(=O)CCC2CCNCC2)C1)C(=O)O` [Example 25, N-[(3R)-1-{3-(4-piperidyl)-propionyl}-3-piperidylcarbonyl]-2(S)-methoxyoxalylamino-β-alanine] yielded a pIC50 of 7.07.
